Structures are written as SMILES.

For assay [1], the target named is T1, acetylcholinesterase (Homo sapiens, UniProt P22303).
T1 construct: The supernatant (lysed RBC's) was stored frozen; from tissue; host or cells: lysed human red blood cells (supernatant of hypotonic lysis)
Kind of assay: Inhibition of acetylcholinesterase (AChE) activity of lysed human red blood cells (Test Method 1). The format is biochemical. As to conditions: 60 min preincubation. On the procedure: (§1) The following method was used to determine the relative inhibition of pseudocholinesterase and acetylcholinesterase by compounds of the present invention.
Lysed Red Blood Cells (RBC's) (Source of Acetylcholinesterase Enzyme)
Human blood which was collected in EDTA treated tubes was centrifuged at 1500×g for 10 min. at 4° C. One volume of chilled 0.9% saline solution was gently mixed with one volume of packed RBC's. One volume of this suspension was then washed three times with ten volumes of chilled 0.9% saline solution (4° C.). Each wash was centrifuged at 1500×g for 10 min. at 4° C. and supernatant was discarded. After the last wash the supernatant was replaced with deionized, distilled water (treated by Milli-Q apparatus, Millipore Corp., Bedford, MA) (4° C.). After 15 min. at 4° C. the suspension was centrifuged at 1500×g for 10 min. at 4° C. The supernatant (lysed RBC's) was stored frozen at -20° C. until use.
(§2) The buffer/chromogen solution was 0.25 mM 5,5'-dithiobis-[2-nitrobenzoic acid] (chromogen), 50 mM phosphate buffer, pH 7.2. In making up the buffer/chromogen solution and to keep it as colorless as possible, the phosphate buffer was first adjusted to pH 7.1 with NaOH; the chromogen was then added and dissolved; the pH was adjusted to 7.2; and the final volume was adjusted with addition of Milli-Q water. 5,5'-dithiobis-(2-nitrobenzoic acid) was obtained from Sigma Chemicals, St. Louis, MO.
(§3) The substrate solution for the pseudocholinesterase assay was 156 mM S-butyrylthiocholine iodide, and the substrate solution for the acetylcholinesterase assay was 156 mM S-acetylthiocholine iodide. Both substrate compounds were obtained from Sigma Chemicals.
(§4) Test Compound Stock Solutions
(§5) Solutions of all test compounds were made up at 2 μM, 20 μM, and 200 μM concentrations (in 0.9% saline solution) except as noted where lower concentrations were necessary because of decreased solubility of the compound in saline solution.
Acetylcholinesterase (AChE) Assay
The acetylcholinesterase assay was performed identically to the pseudocholinesterase assay with the following exceptions. The concentrations of the stock solutions of test compounds were 20 μM and 200 μM, instead of 2 μM and 20 μM, and the substrate solution was 156 mM S-acetylthiocholine iodide instead of S-butyrylthiocholine iodide. The lysed RBC's/test compound solution was incubated for 0 and 60 minutes instead of 0 and 30 minutes before being added to the cuvette containing the buffer/chromogen/substrate solution. From a plot of net absorbance versus time there was an initial period before the curve reached a steady linear rate. From this linear portion of the curve a rate of absorbance change per minute was calculated.
(§6) Each compound was tested for its ability to inhibit plasma pseudocholinesterase activity and acetylcholinesterase activity. Because of variation in the time points in the linear portion of the curve, inhibition values below 10-15% and higher than 85-90% are nearly indistinguishable from 0% and 100%, respectively.

Assay [2] concerns the target T2, pseudocholinesterase (Homo sapiens, UniProt P06276).
T2 construct: a 100 μl aliquot of human plasma; from tissue; host or cells: human plasma (EDTA blood, stored frozen)
Nature of the assay: Inhibition of human plasma pseudocholinesterase (PChE) activity (Test Method 1). It is filed as biochemical. As to conditions: 30 min preincubation. The method, then:
as §1
Plasma (Source of Pseudocholinesterase Enzyme)
Human Plasma was obtained from blood which was collected in ethylenediaminetetraacetic acid (EDTA) treated tubes. Collected plasma was stored frozen at -20° C. until use.
as §2, §3, §4, §5
Pseudocholinesterase (PChE) Assay
In three separate tubes, a 100 μl aliquot of either 0.9% saline solution, 2 μM test compound solution, or 20 μM test compound solution was mixed with a 100 μl aliquot of human plasma, and the tubes were placed in a 35° C. water bath. Four cuvettes, each containing 3 ml buffer/chromogen solution mixed with 100 μl substrate solution (156 mM S-butyrylthiocholine iodide), had been placed in a heated cuvette holder (35° C.) in a Beckman DU-8B Spectrophotometer (Beckman Instruments). After the temperature of the buffer/chromogen/substrate solution in the cuvette had equilibrated for about 10 minutes, and after 0 or 30 minutes incubation of the plasma/test compound solution, a 25 μl aliquot of the plasma/test compound solutions was added to the corresponding cuvettes numbered 2-4. Cuvette #1 remained a blank. After mixing, the net absorbance of each cuvette was determined at 405 nm every 35 seconds for ten readings. From a plot of net absorbance versus time, the initial linear portion of the curve was determined, and a rate of absorbance change per minute was calculated. The positive control (100% PChE activity) was the plasma/saline solution.
as §6

T1 sequence (P22303 other isoform, or with tags, fused parts or gaps): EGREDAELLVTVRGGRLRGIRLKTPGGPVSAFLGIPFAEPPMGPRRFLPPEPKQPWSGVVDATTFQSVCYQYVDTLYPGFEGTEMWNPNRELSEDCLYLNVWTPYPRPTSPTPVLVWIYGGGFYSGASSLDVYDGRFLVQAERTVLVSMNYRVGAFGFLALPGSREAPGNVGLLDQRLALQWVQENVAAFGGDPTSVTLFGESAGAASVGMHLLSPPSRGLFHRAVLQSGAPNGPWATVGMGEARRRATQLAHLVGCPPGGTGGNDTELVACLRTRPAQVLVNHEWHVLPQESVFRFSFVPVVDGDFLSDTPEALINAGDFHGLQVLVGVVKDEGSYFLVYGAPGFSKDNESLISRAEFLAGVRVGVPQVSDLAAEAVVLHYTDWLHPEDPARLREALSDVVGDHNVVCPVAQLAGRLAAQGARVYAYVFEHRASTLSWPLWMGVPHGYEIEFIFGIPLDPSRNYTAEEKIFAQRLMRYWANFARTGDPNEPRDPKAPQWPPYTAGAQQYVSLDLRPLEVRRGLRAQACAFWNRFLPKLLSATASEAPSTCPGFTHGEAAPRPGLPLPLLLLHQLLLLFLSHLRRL
T2 sequence (P06276 29-602): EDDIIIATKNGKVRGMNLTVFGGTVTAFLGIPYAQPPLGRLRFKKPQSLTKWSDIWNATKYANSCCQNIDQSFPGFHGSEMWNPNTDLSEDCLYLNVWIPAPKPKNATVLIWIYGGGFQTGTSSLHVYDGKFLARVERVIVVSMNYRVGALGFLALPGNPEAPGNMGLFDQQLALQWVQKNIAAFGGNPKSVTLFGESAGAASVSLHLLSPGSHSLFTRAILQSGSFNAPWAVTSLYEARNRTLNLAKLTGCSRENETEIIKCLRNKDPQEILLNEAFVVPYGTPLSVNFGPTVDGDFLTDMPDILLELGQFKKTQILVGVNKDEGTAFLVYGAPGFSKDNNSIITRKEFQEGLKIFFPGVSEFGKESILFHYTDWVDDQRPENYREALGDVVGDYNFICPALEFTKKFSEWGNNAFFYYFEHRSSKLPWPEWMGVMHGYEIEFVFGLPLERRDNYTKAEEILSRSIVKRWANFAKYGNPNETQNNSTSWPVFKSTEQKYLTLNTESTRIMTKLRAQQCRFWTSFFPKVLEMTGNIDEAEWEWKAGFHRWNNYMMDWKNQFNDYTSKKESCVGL

Take `NP(N)(=O)NC(=O)c1ccc(F)cc1` [Test Compound 4, N-(diaminophosphinyl)-4-fluorobenzamide]: the inhibition (usually the percentage by which the read-out fell short of the control) at 10 µM in assay [1] (10 μM) was determined as 12.4%; in assay [2] (10 μM), 99.1%. In addition, 100 µM produced 52.3% inhibition in assay [1] (100 μM). In assay [2] (1 μM), this compound came in with an inhibition at 1 µM of 92.8%.
